Laboratory results: patent US8962608B2, “Cycloalkylnitrile pyrazole carboxamides as janus kinase inhibitors” (Merck Sharp & Dohme Corp., priority 2011, dated 2015)

Biological target: JAK2 (recombinant purified GST-tagged catalytic domain) (Homo sapiens (Human), UniProt O60674)
Assay: biochemical
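Also: biochemical JAK kinase assay with HTRF detection.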

Chain of JAK2 (recombinant purified GST-tagged catalytic domain) (O60674 849-1124): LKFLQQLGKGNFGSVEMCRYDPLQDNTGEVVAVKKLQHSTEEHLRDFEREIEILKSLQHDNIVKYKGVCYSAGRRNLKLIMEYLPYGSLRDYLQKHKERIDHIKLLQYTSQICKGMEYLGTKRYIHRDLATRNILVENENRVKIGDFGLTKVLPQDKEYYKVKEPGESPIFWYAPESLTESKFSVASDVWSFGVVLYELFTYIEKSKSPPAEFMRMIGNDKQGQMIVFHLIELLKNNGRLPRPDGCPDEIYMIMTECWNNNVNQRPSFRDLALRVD

Compound	IC50
CC1(C)CN([C@H]2CC[C@H](n3cc(C(N)=O)c(Nc4ccc(Cl)cc4)n3)[C@@H](C#N)C2)C1 (single isomer, unassigned) [Example 28-144, 3-[(4-chlorophenyl)amino]-1-[(1S,2S,4S or 1R,2R,4R)-2-cyano-4-(3,3-dimethylazetidin-1-yl)cyclohexyl]-1H-pyrazole-4-carboxamide]	21 nM
CS(=O)(=O)c1ccc(Nc2nn([C@H]3CC[C@@H](N4CC5(CCC5)C4)C[C@@H]3C#N)cc2C(N)=O)cc1 (single isomer, unassigned) [Example 28-145, 1-[(1S,2S,4R or 1R,2R,4S)-4-(2-azaspiro[3.3]hept-2-yl)-2-cyanocyclohexyl]-3-{[4-(methylsulfonyl)phenyl]amino}-1H-pyrazole-4-carboxamide]	15 nM
N#C[C@H]1CC(N2CCC[C@@H]2CF)CC[C@@H]1n1cc(C(N)=O)c(Nc2ccc(S(=O)(=O)C(F)(F)F)cc2)n1 (single isomer, unassigned) [Example 28-156, 1-{(1S,2S or 1R,2R)-2-cyano-4-[(2R)-2-(fluoromethyl)pyrrolidin-1-yl]cyclohexyl}-3-({4-[(trifluoro-methyl)sulfonyl]phenyl}amino)-1H-pyrazole-4-carboxamide]	14 nM
N#C[C@H]1CC(N2CCC[C@H]2CF)CC[C@@H]1n1cc(C(N)=O)c(Nc2ccc(S(=O)(=O)C(F)(F)F)cc2)n1 (single isomer, unassigned) [Example 28-157, 1-{(1S,2S or 1R,2R)-2-cyano-4-[(2S)-2-(fluoromethyl)pyrrolidin-1-yl]cyclohexyl}-3-({4-[(trifluoro-methyl)sulfonyl]phenyl}amino)-1H-pyrazole-4-carboxamide]	28 nM
N#C[C@H]1C[C@@H](NCC(F)F)CC[C@@H]1n1cc(C(N)=O)c(Nc2ccc(S(=O)(=O)C(F)(F)F)cc2)n1 (single isomer, unassigned) [Example 28-165, 1-{(1S,2S,4S or 1R,2R,4R)-2-cyano-4-[(2,2-difluoroethyl)amino]cyclohexyl}-3-({4-[(trifluoro-methyl)sulfonyl]phenyl}amino)-1H-pyrazole-4-carboxamide]	4 nM
N#C[C@H]1C[C@@H](NCCC(F)(F)F)CC[C@@H]1n1cc(C(N)=O)c(Nc2ccc(S(=O)(=O)C(F)(F)F)cc2)n1 (single isomer, unassigned) [Example 28-166, 1-{(1S,2S,4S or 1R,2R,4R)-2-cyano-4-[(3,3,3-trifluoro-propyl)amino]cyclohexyl}-3-({4-[(trifluoro-methyl)sulfonyl]phenyl}amino)-1H-pyrazole-4-carboxamide]	55 nM
N#C[C@H]1C[C@H](NCCC(F)(F)F)CC[C@@H]1n1cc(C(N)=O)c(Nc2ccc(S(=O)(=O)C(F)(F)F)cc2)n1 (single isomer, unassigned) [Example 28-167, 1-{(1S,2S,4R or 1R,2R,4S)-2-cyano-4-[(3,3,3-trifluoropropyl)amino]cyclo-hexyl}-3-({4-[(trifluoro-methyl)sulfonyl]phenyl}amino)-1H-pyrazole-4-carboxamide]	82 nM
N#C[C@H]1C[C@@H](NCC2CC2)CC[C@@H]1n1cc(C(N)=O)c(Nc2ccc(S(=O)(=O)C(F)(F)F)cc2)n1 (single isomer, unassigned) [Example 28-172, 1-{(1S,2S,4S or 1R,2R,4R)-2-cyano-4-[(cyclopropylmethyl)amino]cyclo-hexyl}-3-({4-[(trifluoromethyl)sulfonyl]phen-yl}amino)-1H-pyrazolc-4-carboxamide]	8 nM
N#C[C@H]1C[C@H](NCC2CC2)CC[C@@H]1n1cc(C(N)=O)c(Nc2ccc(S(=O)(=O)C(F)(F)F)cc2)n1 (single isomer, unassigned) [Example 28-173, 1-{(1S,2S,4R or 1R,2R,4S)-2-cyano-4-[(cyclopropyl-methyl)amino]cyclohexyl}-3-({4-[(trifluoro-methyl)sulfonyl]phenyl}amino)-1H-pyrazole-4-carboxamide]	24 nM
CC(N[C@H]1CC[C@H](n2cc(C(N)=O)c(Nc3ccc(S(=O)(=O)C(F)(F)F)cc3)n2)[C@@H](C#N)C1)C1CC1 (single isomer, unassigned) [Example 28-176, 1-[(1S,2S,4S or 1R,2R,4R)-2-cyano-4-{[(1R)-1-cyclopropylethyl]amino}cyclo-hexyl]-3-({4-[(trifluoromethyl)sulfonyl]phen-yl}amino)-1H-pyrazole-4-carboxamide]	11 nM
CC(N[C@@H]1CC[C@H](n2cc(C(N)=O)c(Nc3ccc(S(=O)(=O)C(F)(F)F)cc3)n2)[C@@H](C#N)C1)C1CC1 (single isomer, unassigned) [Example 28-177, 1-[(1S,2S,4R or 1R,2R,4S)-2-cyano-4-{[(1S)-1-cyclopropylethyl]amino}cyclo-hexyl]-3-({4-[(trifluoromethyl)sulfonyl]phen-yl]amino)-1H-pyrazole-4-carboxamide]	43 nM
CN(C(C1CC1)C1CC1)[C@H]1CC[C@H](n2cc(C(N)=O)c(Nc3ccc(S(=O)(=O)C(F)(F)F)cc3)n2)[C@@H](C#N)C1 (single isomer, unassigned) [Example 28-178, 1-{(1S,2S,4S or 1R,2R,4R)-2-cyano-4-[(dicyclopropyl-methyl)(methyl)amino]cyclo-hexyl}-3-({4-[(trifluoromethyl)sulfonyl]phen-yl}amino)-1H-pyrazole-4-carboxamide]	2 nM
CN(C(C1CC1)C1CC1)[C@@H]1CC[C@H](n2cc(C(N)=O)c(Nc3ccc(S(=O)(=O)C(F)(F)F)cc3)n2)[C@@H](C#N)C1 (single isomer, unassigned) [Example 28-179, 1-{(1S,2S,4R or 1R,2R,4S)-2-cyano-4-[(dicyclopropyl-methyl)(methyl)amino]cyclo-hexyl}-3-({4-[(trifluoromethyl)sulfonyl]phen-yl}amino)-1H-pyrazole-4-carboxamide]	170 nM
C[C@@H](N[C@H]1CC[C@H](n2cc(C(N)=O)c(Nc3ccc(S(=O)(=O)C(F)(F)F)cc3)n2)[C@@H](C#N)C1)C1CC1 (single isomer, unassigned) [Example 28-182, 1-[(1S,2S,4S or 1R,2R,4R)-2-cyano-4-{[(1R)-1-cyclopropylethyl]amino}cyclo-hexyl]-3-({4-[(trifluoromethyl)sulfonyl]phen-yl}amino)-1H-pyrazole-4-carboxamide]	12 nM
C[C@@H](N[C@@H]1CC[C@H](n2cc(C(N)=O)c(Nc3ccc(S(=O)(=O)C(F)(F)F)cc3)n2)[C@@H](C#N)C1)C1CC1 (single isomer, unassigned) [Example 28-183, 1-{(1S,2S,4R or 1R,2R,4S)-2-cyano-4-[(1-cyclopropylethyl)amino]cyclo-hexyl}-3-({4-[(trifluoromethyl)sulfonyl]phen-yl}amino)-1H-pyrazole-4-carboxamide]	61 nM
C[C@H](N[C@H]1CC[C@H](n2cc(C(N)=O)c(Nc3ccc(S(=O)(=O)C(F)(F)F)cc3)n2)[C@@H](C#N)C1)C1CC1 (single isomer, unassigned) [Example 28-184, 1-{(1S,2S,4S or 1R,2R,4R)-2-cyano-4-[(1-cyclopropylethyl)amino]cyclo-hexyl}-3-({4-[(trifluoromethyl)sulfonyl]phen-yl}amino)-1H-pyrazole-4-carboxamide]	23 nM
C[C@H](N[C@@H]1CC[C@H](n2cc(C(N)=O)c(Nc3ccc(S(=O)(=O)C(F)(F)F)cc3)n2)[C@@H](C#N)C1)C1CC1 (single isomer, unassigned) [Example 28-185, 1-[(1S,2S,4R or 1R,2R,4S)-2-cyano-4-{[(1S)-1-cyclopropylethyl]amino}cyclo-hexyl]-3-({4-[(trifluoromethyl)sulfonyl]phen-yl}amino)-1H-pyrazole-4-carboxamide]	83 nM
CN(C)[C@H]1CC[C@H](n2cc(C(N)=O)c(Nc3ccc(C(F)(F)F)cc3)n2)[C@@H](C#N)C1 (single isomer, unassigned) [Example 28-188, 1-[(1S,2S,4S or 1R,2R,4R)-2-cyano-4-(dimethylamino)cyclohexyl]-3-{[4-(trifluoromethyl)phenyl]amino}-1H-pyrazole-4-carboxamide]	14 nM
CN(C)[C@@H]1CC[C@H](n2cc(C(N)=O)c(Nc3ccc(C(F)(F)F)cc3)n2)[C@@H](C#N)C1 (single isomer, unassigned) [Example 28-189, 1-[(1S,2S,4R or 1R,2R,4S)-2-cyano-4-(dimethylamino)cyclohexyl]-3-{[4-(trifluoromethyl)phenyl]amino}-1H-pyrazole-4-carboxamide]	21 nM
CC1(C)CN([C@H]2CC[C@H](n3cc(C(N)=O)c(Nc4ccc(C(F)(F)F)cc4)n3)[C@@H](C#N)C2)C1 (single isomer, unassigned) [Example 28-202, 1-[(1S,2S,4S or 1R,2R,4R)-2-cyano-4-(3,3-dimethylazetidin-1-yl)cyclohexyl]-3-{[4-(trifluoromethyl)phenyl]amino}-1H-pyrazole-4-carboxamide]	39 nM
CC1(C)CN([C@@H]2CC[C@H](n3cc(C(N)=O)c(Nc4ccc(C(F)(F)F)cc4)n3)[C@@H](C#N)C2)C1 (single isomer, unassigned) [Example 28-203, 1-[(1S,2S,4R or 1R,2R,4S)-2-cyano-4-(3,3-dimethylazetidin-1-yl)cyclohexyl]-3-{[4-(trifluoromethyl)phenyl]amino}-1H-pyrazole-4-carboxamidc]	285 nM
CC1(N[C@H]2CCC(n3cc(C(N)=O)c(Nc4ccc(Cl)cc4)n3)[C@@H](C#N)C2)COC1 (single isomer, unassigned) [Example 28-207, 3-[(4-chlorophenyl)amino]-1-{(1S,2S,4S or 1R,2R,4R)-2-cyano-4-[(3-methyloxetan-3-yl)amino]cyclohexyl}-1H-pyrazole-4-carboxamide]	22 nM
CC(C)(N[C@H]1CCC(n2cc(C(N)=O)c(Nc3ccccc3)n2)[C@@H](C#N)C1)C1CC1 (single isomer, unassigned) [Example 28-214, 1-{(1S,2S,4S or 1R,2R,4R)-2-cyano-4-[(1-cyclopropyl-1-methylethyl)amino]cyclohexyl}-3-(phenylamino)-1H-pyrazole-4-carboxamide]	38 nM
CC(C)(C)N[C@H]1CCC(n2cc(C(N)=O)c(Nc3ccccc3)n2)[C@@H](C#N)C1 (single isomer, unassigned) [Example 28-215, 1-[(1S,2S,4S or 1R,2R,4R)-4-(tert-butylamino)-2-cyanocyclohexyl]-3-(phenylamino)-1H-pyrazole-4-carboxamide]	28 nM
